The values that follow come from US4472397A, “Use of certain 1-substituted-triazolo-benzodiazepines to treat psychoses” (priority 1983, dated 1984).

Structures are written as SMILES. Entries after “also recorded” stand apart in the source; their conditions may differ. Read-outs that look alike come from different tables or passages of the source.

Data set [1] concerns ^3 H-Spiroperidol binding. Nature of the data set: animal or person. The data set is classed as in vivo, Male ICR mice. The note with it: for activity at 50 mg/kg: Mus musculus, sc, read-out: In vivo ^3 H-Spiroperidol % of Control. As to the method: The following representative compounds were tested in an in vivo mouse ^3 H-Spiroperidol binding test.
The test procedure was as follows:
Male ICR mice weighing 20-22 g were used.
The animals were dosed with the ^3 H-Spiroperidol solution at 66 micro-Curie/kg in 0.2 ml, by the subcutaneous route. The animals were sacrificed 2 hours later and sections of the brains of the mice were removed with striata and septum and some adjacent cortex. The tissues were weighed after freezing on dry ice and dissolved in 1 ml of Protosol overnight at 35° C. The Protosol was neutralized with 80 μl of 6N hydrochloric acid and 15 ml of ACS scintillation fluid was added. All samples were then counted in a liquid scintillation counter.
A background of 25 counts per minute (CPM) was subtracted from the counts for each sample counted. The CPM/mg of the tissue was calculated and a statistical t test was used to test the significance of the value.

For a further data set, the system named is schizoaffective patient. Nature of the data set: Treatment of a human schizoaffective patient with adinazolam (Example 2). The data set is classed as in vivo. To be noted: 5 mg bid first day, 5 mg tid second day; over two days; one patient refractory to tricyclic antidepressant and stelazine. The method, then: In a human patient, adinazolam was given for two days at a dosage of 5 mg bid (twice a day) the first day and 5 mg tid (three times a day) the second day to a human schizoaffective patient suffering moodcongruent delusions and persecutory auditory hallucinations which had been refractory to four months of therapy with a tricyclic antidepressant and stelazine. The clinician serving the patient found a remarkable approximately fifty percent (50%) improvement in the patient's condition over the two days of treatment with adinazolam.

Data set [2] deals with psychotic, including schizophrenic, disorders. Nature of the data set: Clinical trials in human patients with psychotic, including schizophrenic, disorders (Example 3). The data set is classed as in vivo. As to the method: Clinical trials with the lead compound, adinazolam, in the treatment of human patients for psychotic, including schizophrenic, disorders in the absence of depression are in progress. […] Patients are being maintained on dosages of from 2.5 to 20 mg. of adinazolam qid (four times a day).
In one patient extrapyramidal side effects persisting from previous medication disappeared with adinazolam therapy.

A further data set relates to serum prolactin. Nature of the data set: Serum prolactin levels in open-label depression studies. The data set is classed as in vivo, human. From the text: (Three of the patients had been treated recently with a phenothiazine or amoxapine).
Data set [3] relates to intractable psychosis or schizoaffective illnesses. Nature of the data set: Preliminary clinical trials in human patients with intractable psychosis or schizoaffective illnesses. The data set is classed as in vivo. The note with it: small, but effective and safe dosage amounts.
In another data set the test system is acute psychosis. To be noted: cited from earlier work.
Setting [4] is: Dose 50 mg/kg, subcutaneous, one hour before ^3 H-Spiroperidol, sacrificed 2 hours later.

On to `CN1CCN(c2nnc3n2-c2ccc(Cl)cc2C(c2ccccc2)=NC3)CC1` [Compound 2, 8-chloro-1-(4-methyl-1-piperazinyl)-6-phenyl-4H--s-triazolo[4,3-a][1,4]benzodiazepine], for which, in data set [1] (Dose 50 mg/kg, subcutaneous, one hour before ^3 H-Spiroperidol, sacrificed 2 hours later, 50 mg/kg), the “In vivo ^3 H-Spiroperidol % of Control” value is given as 73%. Besides, the activity at 50 mg/kg in data set [1] (setting [4]) came to 69%.

For `CN(C)CCc1nnc2n1-c1ccc(Cl)cc1C(c1ccccc1)=NC2` [Compound 3, 8-chloro-1-[2-(dimethylamino)ethyl]-6-phenyl-4H--s-triazolo[4,3-a][1,4]benzodiazepine], the activity at 50 mg/kg in data set [1] (setting [4]) was determined as 78%.

Take `CC1NC(c2ccccc2)c2cc(Cl)ccc2-n2c1nnc2N1CCN(C)CC1` (stereo not shown) [Compound 5, 8-chloro-1-(4-methyl-1-piperazinyl)-4-methyl-5,6-dihydro-6-phenyl-4H--s-triazolo[4,3-a][1,4]benzodiazepine]: the “In vivo ^3 H-Spiroperidol % of Control” value in data set [1] (setting [4]) is 89%.

For `CCN1CCN(c2nnc3n2-c2ccccc2C(c2ccccc2Cl)=NC3)CC1` [Compound 7, 1-(4-ethyl-1-piperazinyl)-6-(2-chlorophenyl)-4H--s-triazolo[4,3][1,4]benzodiazepine], in data set [1] (setting [4]), the activity at 50 mg/kg was determined as 72%.

For `CN1CCN(c2nnc3n2-c2ccccc2C(c2ccccc2)=NC3)CC1` [Compound 4, 1-(4-methyl-1-piperazinyl)-6-phenyl-4H--s-triazolo[4,3-a][1,4]benzodiazepine], the activity at 50 mg/kg in data set [1] (setting [4]) stood at 59%.

Consider `CN(C)Cc1nnc2n1-c1ccc(Cl)cc1C(c1ccccc1)=NC2` [Compound 1, 8-chloro-1-[(dimethylamino)methyl]-6-phenyl-4H--s-triazolo[4,3-a][1,4]-benzodiazepine], for which the activity at 50 mg/kg in data set [1] amounted to 82%. Further, in data set [1] (animals, in vivo, listed as adinazolam), the “Activity in the ^3 H-Spiroperidol binding test (in words)” value is listed as “active; also recorded: weak but suggested antipsychotic-like activity”. In addition, the “improvement in the patient's condition” value with schizoaffective patient is about 50%. For the same compound, in data set [2] (five patients, 2.5 to 20 mg qid, absence of depression), the improvement of patients entry is on record as “all experienced moderate or marked improvement”. Further, in data set [2] (one patient), the “extrapyramidal side effects persisting from previous medication” value is reported as “disappeared”. For the same compound, the “effect of unintentional withdrawal of medication” value in data set [2] (one patient, medication withdrawn for 24 hours) is “reverted to a psychotic condition”. Besides, in data set [2] (one patient, reinitiated in the morning after 24 hour withdrawal, that same day), the “effect of reinitiated therapy” value was “became lucid again that same day”. For the same compound, in the data set on serum prolactin (four patients (2 males; 2 females), three recently treated with a phenothiazine or amoxapine), the “prolactin levels in patients with elevated prolactin at introductory screening” value is given as “the prolactin levels in all four patients normalized”. Also, in the data set on serum prolactin (open-label depression studies), the “effect on serum prolactin levels” value is “no apparent elevating effect on serum prolactin levels”. Moreover, the “symptoms of schizophrenia and affective improvement” value in data set [3] was “improved symptoms of schizophrenia and affective improvement”.

Turning to `CN1CCN(c2nnc3n2-c2ccccc2C(c2ccccc2Cl)=NC3)CC1` [Compound 6, 1-(4-methyl-1-piperazinyl)-6-(2-chlorophenyl)-4H--s-triazolo[4,3-a][1,4]benzodiazepine], the activity at 50 mg/kg in data set [1] (setting [4]) came out at 65%.

On to `CN1C(=O)CN=C(c2ccccc2)c2cc(Cl)ccc21` [diazepam], for which the “effectiveness versus haloperidol in acute psychosis” value in the data set on acute psychosis (over 24 hours of treatment) was “at least as effective as haloperidol”. Also, in the data set with acute psychosis (treatment of acute psychosis), the sedation effects entry is recorded as “marked sedation effects”.
